Experimental data published in patent US4102886A, “Process for the preparation of benzo(a)quinolizidine derivatives” (priority 1974, dated 1978).

Assays:
[1] = tested on: experimentally provoked fever; test: Antipyretic activity (experimentally provoked fever); format: in vivo; design: unit not given here; details: 25 mg./kg. p.o.
Excerpt: Besides their antiphlogistic activities, some of the benzo(a)quinolizidine derivatives exert antipyretic effects as well. On the basis of the tests performed on experimentally provoked fever, the antipyretic activities of the compounds according to the invention surpass the effect of amidazophenum.

Acute toxicity tests = format: in vivo; details: rat, in vivo, po; rats, Litchfield-Wildoxon method
Method: The acute toxicity values of the compounds were determined on rats, after oral administration. The LD50 values were calculated according to the Litchfield-Wildoxon method.

central nervious system = test: Narcosis potentiating effect; format: in vivo; details: 20 mg./kg. p.o.
Cotton granuloma = Cotton granuloma test; format: in vivo; details: 100 mg./kg.
[2] = Determination of ulcer index
kaolin-induced oedema = test: Inhibition of kaolin-induced oedema; format: in vivo; details: 100 mg./kg. p.o., 2 hours
Method: (§1) Inhibition of Kaolin- and carrageenin-induced oedema
(§2) The tests were carried out on groups each consisting of at least 10 animals. The percentage inhibition of oedema, in relation to the untreated controls, was determined for each of the animals, and the average values were calculated.

[3] = tested on: carrageenin-induced oedema; test: Inhibition of carrageenin-induced oedema; format: in vivo; details: 100 mg./kg. p.o., 1.5 hours
Method: as §1, §2

## Cc1c(N(C)C)c(=O)n(-c2ccccc2)n1C [Amidazophenum]
[1]; 1 hour after administration
  Variation of body temperature: -1.17
[1]; 2 hours after administration
  Variation of body temperature: -0.94
[1]; 3 hours after administration
  Variation of body temperature: -0.95

## CC(=O)Oc1ccccc1C(=O)O [Aspirin, reference compound]
Acute toxicity tests
  LD50: 1700 mg/kg

## CCCC(C)(COC(N)=O)COC(N)=O [Meprobamate, reference compound]
Central nervious system
  Prolongation of the sleep period in relation to the untreated controls, %: 110.2%

## O=C(O)c1ccccc1O [Na-salicylate, reference compound]
Cotton granuloma
  Effect, % (cotton granuloma test): 25.5%
[2]; female
  Erosion: 3/10
  Ulcer: 2/10
[2]; male
  Erosion: 1/10
  Ulcer: 4/10
kaolin-induced oedema
  Inhibition of kaolin-induced oedema 2 hours after administration: 10.5%
[3]
  Inhibition of carrageenin-induced oedema 1.5 hours after administration: 16.2%
